Residues, ends and D or L forms follow the SMILES beside them.
Experiments:
E. coli BL21 (DE3) = assay: MIC of β-lactam antibiotics by E-test method; type: cell-based; settings: Escherichia coli, 24 h
[1] = test system: E. coli BL21 (DE3)/pET30a; assay: MIC of β-lactam antibiotics by E-test method; type: cell-based; settings: Escherichia coli, 24 h
[2] = test system: E. coli BL21 (DE3)/pET30a-NDM-1; assay: MIC of β-lactam antibiotics by E-test method; type: cell-based; settings: Escherichia coli, 24 h
Method: (§1) E. coli BL21(DE3) cells were transformed with the pET30a plasmid encoding the NDM-1 gene (Gen Bank ID: HQ162469). E. coli BL21(DE3)/pET30a-NDM-1 was grown overnight at 37°C in liquid Luria-Bertani (LB) broth containing 50μg/ml kanamycin, 100μg/ml ampicillin and 50μM Zn(NO3)2 to select for E. coli clones containing the plasmid of pET30a-NDM-1. Two strains, E. coli BL21 (DE3)/pET30a-NDM-1 overexpressing NDM-1 and P. aeruginosa isolated from Renmin Hospital of Wuhan University with blaNDM-1 confirmed by PCR (data not shown), were cultured overnight, respectively. The cultures were diluted 1:100, grown to an optical density at 600 nm (OD600) of ~0.6, and spread onto LB agar. After naturally drying for five minutes, E-test strips (AB Biodisk, Solna, Sweden) were applied to the ~150mm Mueller-Hinton (MH) (Tianhe Microbial Agents, Hangzhou, China) agar plates and grown for 24h at 35°C to 37°C without further intervention. The antibiotic strips respectively containing penicillin G, ampicillin, cephalothin, cefuroxime, ceftazidime, cefepime, meropenem, ertapenem, aztreonam were used for testing susceptibility. The results were obtained in accordance with the Clinical and Laboratory Standards Institute (CLSI) guidelines.

[3] = test system: P. aeruginosa with blaNDM-1; assay: MIC of β-lactam antibiotics by E-test method; type: cell-based; settings: Pseudomonas aeruginosa, 24 h
Method: as §1

[4] = test system: E. coli BL21 (DE3)/pET30a-NDM-1; assay: Synergistic antibacterial effect of ertapenem combined with oligopeptide (twofold broth dilution); type: cell-based; settings: ertapenem alone at 256 μg/ml; NDM-1 strain
Method: E. coli BL21 (DE3)/pET30a-NDM-1 overexpressing NDM-1 and a clinical isolate of P. aeruginosa with blaNDM-1 were also utilized to evaluate the bioactivities of oligopeptides, which reversed NDM-1-mediated β-lactam antibiotics resistance. Determination of antibacterial synergy was performed using a serial twofold dilutions method recommended by CLSI guidelines. E. coli BL21 (DE3)/pET30a was used as a control in the experiment. Minimum inhibitory concentrations (MICs) of the agents were determined by the twofold serial dilution with Mueller-Hinton (MH) broth (Shifeng Biotech Corp., Shanghai, China). For this assay, E. coli BL21 (DE3)/pET30a-NDM-1 was grown overnight in MH broth media containing 50μg/ml kanamycin at 37°C [23]. β-lactam antibiotic and oligopeptide at various concentrations were added to 120μL broth media of a 1:20 dilution of the overnight culture, resulting the final volume of 150μL [24]. The growth of bacterial cultures was set up in 96-well microplates, which incubated at 37°C with constant shaking continuously for 18 h and a reading at 630 nm was taken to determine the MICs of synergistic effect. The lowest antibiotic concentration preventing visible growth was deemed to be the MIC value. […] Every data of reading was repeated thrice, and each experiment mentioned above was performed at least two times.

full-length NDM-1 = full-length NDM-1 (Klebsiella pneumoniae, UniProt C7C422); assay: biochemical; settings: IC50 (Mean±SD), full-length NDM-1, ertapenem 80 μM as substrate, 15 min pre-incubation at 35°C
Chain of full-length NDM-1 (C7C422 29-270 limits assumed): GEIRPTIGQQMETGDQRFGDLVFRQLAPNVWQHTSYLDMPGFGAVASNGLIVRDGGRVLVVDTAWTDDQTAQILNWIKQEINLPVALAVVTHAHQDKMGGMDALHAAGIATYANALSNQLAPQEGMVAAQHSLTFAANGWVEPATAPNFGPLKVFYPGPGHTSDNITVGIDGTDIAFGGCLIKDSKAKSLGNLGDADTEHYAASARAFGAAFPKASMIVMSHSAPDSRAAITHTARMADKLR
Method: The full-length NDM-1 enzyme was expressed and purified by a method from a previously published procedure. All the oligopeptides were synthesized by GL Biochem. (Shanghai), Ltd., China, with a purity of >95%. The target of NDM-1 enzyme was pre-incubated with the desired oligopeptide for 15min at 35°C before the assay by adding the inhibitor. The oligopeptides used for testing were dissolved in 10mM phosphate-buffered saline (PBS) buffer (pH7.0), containing dimethyl sulfoxide (DMSO) with the final concentration of 0.25% (V/V). […] Ertapenem (80μM) was used as report substrate. The hydrolysis of the substrate by the NDM-1 was detected by monitoring the variation in absorbance resulting from the opening of the β-lactam ring. All the determinations were made on a spectrophotometer (UV-1750, Shimadzu, Japan) connected to a personal computer. The enzymatic reactions were carried out in a total volume of 100μL. The reaction buffer contained 20mM HEPES buffer, pH7.3, 0.25M NaCl, 1mM 1,4-Dithio-DL-threitol (DTT) (Beinglay Biotech Corp., Wuhan, China), 50μM Zn(NO3)2 and 10mg/ml bovine serum albumin (BSA) preventing NDM-1 denaturation. The ultraviolet (UV) absorbance detector was set at 300 nm, a λ max for ertapenem. The IC50 values were determined more than three times by fitting the concentration dependence of residual enzyme activity to the nonlinear regression (curve fit) using GraphPad Prism (GraphPad Software, La Jolla, America).

SMILES: CC1(C)S[C@@H]2[C@H](NC(=O)[C@H](N)c3ccccc3)C(=O)N2[C@H]1C(=O)O [Ampicillin]
- MIC (E. coli BL21 (DE3)): 6 µg/mL
- MIC [1]: 8 µg/mL
- MIC [2]: > 256 µg/mL
- MIC [3]: > 256 µg/mL

SMILES: C[C@H]1[C@H](NC(=O)/C(=N\OC(C)(C)C(=O)O)c2csc(N)n2)C(=O)N1S(=O)(=O)O [Aztreonam]
- MIC (E. coli BL21 (DE3)): 0.047 µg/mL
- MIC [1]: 0.064 µg/mL
- MIC [2]: > 256 µg/mL
- MIC [3]: > 256 µg/mL

SMILES: CO/N=C(\C(=O)N[C@@H]1C(=O)N2C(C(=O)[O-])=C(C[N+]3(C)CCCC3)CS[C@H]12)c1csc(N)n1 [Cefepime]
- MIC (E. coli BL21 (DE3)): 0.08 µg/mL
- MIC [1]: 0.08 µg/mL
- MIC [2]: > 64 µg/mL
- MIC [3]: > 64 µg/mL

SMILES: CO/N=C(\C(=O)N[C@@H]1C(=O)N2C(C(=O)O)=C(COC(C)=O)CS[C@H]12)c1csc(N)n1 [Cefotaxime]
- MIC (E. coli BL21 (DE3)): 0.125 µg/mL
- MIC [1]: 0.25 µg/mL
- MIC [2]: > 256 µg/mL
- MIC [3]: > 256 µg/mL

SMILES: CC(C)(O/N=C(\C(=O)N[C@@H]1C(=O)N2C(C(=O)[O-])=C(C[n+]3ccccc3)CS[C@H]12)c1csc(N)n1)C(=O)O [Ceftazidime]
- MIC (E. coli BL21 (DE3)): 0.38 µg/mL
- MIC [1]: 0.25 µg/mL
- MIC [2]: > 256 µg/mL
- MIC [3]: > 256 µg/mL

SMILES: CO/N=C(\C(=O)N[C@@H]1C(=O)N2C(C(=O)O)=C(COC(N)=O)CS[C@H]12)c1ccco1 [Cefuroxime]
- MIC (E. coli BL21 (DE3)): 2 µg/mL
- MIC [1]: 3 µg/mL
- MIC [2]: > 256 µg/mL
- MIC [3]: 256 µg/mL

SMILES: CC(=O)OCC1=C(C(=O)O)N2C(=O)[C@@H](NC(=O)Cc3cccs3)[C@H]2SC1 [Cephalothin]
- MIC (E. coli BL21 (DE3)): 6 µg/mL
- MIC [1]: 4 µg/mL
- MIC [2]: > 256 µg/mL
- MIC [3]: > 256 µg/mL

SMILES: C[C@@H](O)[C@H]1C(=O)N2C(C(=O)O)=C(S[C@@H]3CN[C@H](C(=O)Nc4cccc(C(=O)O)c4)C3)[C@H](C)[C@H]12 [Ertapenem]
- growth in broth media containing ertapenem [4]: still able to grow
- MIC (E. coli BL21 (DE3)): 0.094 µg/mL
- MIC [1]: 0.094 µg/mL
- MIC [2]: > 32 µg/mL
- MIC [3]: > 32 µg/mL

SMILES: C[C@@H](O)[C@H]1C(=O)N2C(C(=O)O)=C(S[C@@H]3CN[C@H](C(=O)N(C)C)C3)[C@H](C)[C@H]12 [Meropenem]
- MIC (E. coli BL21 (DE3)): 0.032 µg/mL
- MIC [1]: 0.047 µg/mL
- MIC [2]: > 32 µg/mL
- MIC [3]: > 32 µg/mL

SMILES: N[C@@H](CS)C(=O)N[C@@H](Cc1c[nH]cn1)C(=O)O [Oligopeptide 1, Cys-His] (H-Cys-His-OH)
- IC50 (full-length NDM-1): 182 ± 14 µM

SMILES: N[C@@H](CS)C(=O)N[C@@H](Cc1ccccc1)C(=O)O [Oligopeptide 2, Cys-Phe] (H-Cys-Phe-OH)
- IC50 (full-length NDM-1): 113 ± 9 µM

SMILES: N[C@@H](CS)C(=O)N[C@@H](Cc1ccc(O)cc1)C(=O)O [Oligopeptide 3, Cys-Tyr] (H-Cys-Tyr-OH)
- IC50 (full-length NDM-1): > 300 µM

SMILES: CC(C)[C@H](NC(=O)[C@@H](N)CS)C(=O)O [Oligopeptide 4, Cys-Val] (H-Cys-Val-OH)
- IC50 (full-length NDM-1): 235 ± 18 µM

SMILES: N[C@@H](CS)C(=O)N[C@@H](CC(=O)O)C(=O)O [Oligopeptide 5, Cys-Asp] (H-Cys-Asp-OH)
- IC50 (full-length NDM-1): 68 ± 5 µM

SMILES: N[C@@H](CS)C(=O)NCC(=O)N[C@@H](Cc1c[nH]cn1)C(=O)O [Oligopeptide 6, Cys-Gly-His] (H-Cys-Gly-His-OH)
- IC50 (full-length NDM-1): 263 ± 21 µM

SMILES: N[C@@H](CS)C(=O)NCC(=O)N[C@@H](Cc1ccccc1)C(=O)O [Oligopeptide 7, Cys-Gly-Phe] (H-Cys-Gly-Phe-OH)
- IC50 (full-length NDM-1): 144 ± 13 µM

SMILES: N[C@@H](CS)C(=O)NCC(=O)N[C@@H](Cc1ccc(O)cc1)C(=O)O [Oligopeptide 8, Cys-Gly-Tyr] (H-Cys-Gly-Tyr-OH)
- IC50 (full-length NDM-1): > 300 µM

SMILES: CC(C)[C@H](NC(=O)CNC(=O)[C@@H](N)CS)C(=O)O [Oligopeptide 9, Cys-Gly-Val] (H-Cys-Gly-Val-OH)
- IC50 (full-length NDM-1): 249 ± 21 µM

SMILES: N[C@@H](CS)C(=O)NCC(=O)N[C@@H](CC(=O)O)C(=O)O [Oligopeptide 10, Cys-Gly-Asp] (H-Cys-Gly-Asp-OH)
- IC50 (full-length NDM-1): > 300 µM

SMILES: CC1(C)S[C@@H]2[C@H](NC(=O)Cc3ccccc3)C(=O)N2[C@H]1C(=O)O [Penicillin G]
- MIC (E. coli BL21 (DE3)): 12 µg/mL
- MIC [1]: 12 µg/mL
- MIC [2]: > 32 µg/mL
- MIC [3]: > 32 µg/mL
